From patent US20230390274A1 (EPIRIUM BIO INC., priority 2020, published 2023)

Target: 15-PGDH/HPGD (Homo sapiens (Human), UniProt P15428)
Assay: hPGDH inhibitor screening biochemical assay
Conditions: 10 nM 15-PGDH/HPGD, 15 μM PGE2, 0.25 mM NAD; read-out: hPGDH: Average IC50
Summary of the method: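 10 nM recombinant 15-PGDH was preincubated with compound (10-point) for 10 min at 37° C. in 50 mM Tris-HCl pH 7.5, 0.01% Tween 20. Then 15 μM PGE2 and 0.25 mM NAD+ were added for 10 min at rt. NADH fluorescence (ex/em 340/485 nm) gave % inhibition versus 1% DMSO and a four-parameter IC50.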

15-PGDH/HPGD, sequence (P15428 whole entry): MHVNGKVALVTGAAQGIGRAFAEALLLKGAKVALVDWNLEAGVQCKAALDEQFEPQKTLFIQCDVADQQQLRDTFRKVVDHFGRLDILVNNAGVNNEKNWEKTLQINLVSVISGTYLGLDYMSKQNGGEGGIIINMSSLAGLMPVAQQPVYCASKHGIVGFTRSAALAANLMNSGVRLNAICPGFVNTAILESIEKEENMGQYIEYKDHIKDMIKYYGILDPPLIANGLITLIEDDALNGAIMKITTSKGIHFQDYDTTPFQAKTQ

| Structure (SMILES) | IC50 |
| --- | --- |
| O=C(NC1(C(=O)O)CC1)c1ccc(-n2ccc3cc(C(=O)N4CCC(F)(F)CC4)cnc32)cc1 [A-233] | < 0.1 µM |
| O=C(NC1(C(=O)O)CC1)c1ccc(-n2ccc3cc(C(=O)N4CCC(F)(F)CC4)cnc32)cn1 [A-234, 1-(5-(5-(4,4-difluoropiperidine-1-carbonyl)-1H-pyrrolo[2,3-b]pyridin-1-yl)picolinamido)cyclopropane-1-carboxylic acid] | < 0.1 µM |
| CC(C)(CC(=O)O)NC(=O)c1ccc(-n2ccc3cc(C(=O)N4CCC(F)(F)CC4)cnc32)cc1 [A-235] | < 0.1 µM |
| O=C(O)[C@@H]1CCCN1C(=O)c1ccc(-n2ccc3cc(C(=O)N4CCC(F)(F)CC4)cnc32)cc1 [A-236] | < 0.1 µM |
| CCC(CC)NC(=O)c1ccc(-n2ccc3cc(C(=O)N4CCC(F)(F)CC4)cnc32)cn1 [A-239, 5-(5-(4,4-difluoropiperidine-1-carbonyl)-1H-pyrrolo[2,3-b]pyridin-1-yl)-N-(pentan-3-yl) picolinamide] | < 0.1 µM |
| CC(C)(C)CNC(=O)c1ccc(-n2ccc3cc(C(=O)N4CCC(F)(F)CC4)cnc32)cn1 [A-240, 5-(5-(4,4-difluoropiperidine-1-carbonyl)-1H-pyrrolo[2,3-b]pyridin-1-yl)-N-neopentylpicolinamide] | < 0.1 µM |
| N#Cc1ccc(-n2ccc3cc(C(=O)N4CCC(F)(F)CC4)cnc32)cc1 [A-241, 4-(5-(4,4-difluoropiperidine-1-carbonyl)-1H-pyrrolo[2,3-b]pyridin-1-yl)benzonitrile] | < 0.1 µM |
| N#Cc1ccc(-n2ccc3cc(C(=O)N4CCC(F)(F)CC4)cnc32)cc1O [A-243] | < 0.1 µM |
| CC(C)(O)CCc1cc2cc(C(=O)N3CCC(F)(F)CC3)cnc2n1-c1ccc(C#N)cc1 [A-244, 4-(5-(4,4-difluoropiperidine-1-carbonyl)-2-(3-hydroxy-3-methylbutyl)-1H-pyrrolo[2,3-b]pyridin-1-yl)benzonitrile] | < 0.1 µM |
| CC(C)(C)NC(=O)c1cncc(-n2ccc3cc(C(=O)N4CCC(F)(F)CC4)cnc32)c1 [A-246, N-(tert-butyl)-5-(5-(4,4-difluoropiperidine-1-carbonyl)-1H-pyrrolo[2,3-b]pyridin-1-yl)nicotinamide] | < 0.1 µM |

Other lines, results leading:

| IC50 | Structure (SMILES) |
| --- | --- |
| < 0.1 µM | NCCNC(=O)c1ccc(-n2ccc3cc(C(=O)N4CCC(F)(F)CC4)cnc32)cc1 [A-221, N-(2-aminoethyl)-4-(5-(4,4-difluoropiperidine-1-carbonyl)-1H-pyrrolo[2,3-b]pyridin-1-yl)benzamide] |
| < 0.1 µM | O=C(NC(CO)CO)c1ccc(-n2ccc3cc(C(=O)N4CCC(F)(F)CC4)cnc32)cc1 [A-222] |
| < 0.1 µM | O=C(NCCO)c1ccc(-n2ccc3cc(C(=O)N4CCC(F)(F)CC4)cnc32)cc1 [A-223] |
| < 0.1 µM | N#Cc1ccc(-n2ccc3cc(C(=O)N4C[C@H](F)C[C@H](F)C4)cnc32)cc1 [A-224, 4-(5-((3R,5S)-3,5-difluoropiperidine-1-carbonyl)-1H-pyrrolo[2,3-b]pyridin-1-yl)benzonitrile] |
| < 0.1 µM | CCNC(=O)c1ccc(-n2ccc3cc(C(=O)N4CCC(F)(F)CC4)cnc32)cc1 [A-225] |
| < 0.1 µM | O=C(NC1CCNCC1)c1ccc(-n2ccc3cc(C(=O)N4CCC(F)(F)CC4)cnc32)cc1 [A-226] |
| < 0.1 µM | O=C(NC1CNC1)c1ccc(-n2ccc3cc(C(=O)N4CCC(F)(F)CC4)cnc32)cc1 [A-227] |
| < 0.1 µM | O=C(O)Cc1ccc(-n2ccc3cc(C(=O)N4CCC(F)(F)CC4)cnc32)cc1 [A-230, 2-(4-(5-(4,4-difluoropiperidine-1-carbonyl)-1H-pyrrolo[2,3-b]pyridin-1-yl)phenyl)acetic acid] |
| < 0.1 µM | CS(=O)(=O)NC(=O)c1ccc(-n2ccc3cc(C(=O)N4CCC(F)(F)CC4)cnc32)cc1 [A-232, 4-(5-(4,4-difluoropiperidine-1-carbonyl)-1H-pyrrolo[2,3-b]pyridin-1-yl)-N-(methylsulfonyl)benzamide] |
